Assays:
[1] = Lipid hydroperoxide (LOOH) formation in cholesterol-enriched DLPC model membranes under autoxidation (Example 3); assay type: biochemical; conditions: EPA:lipid 1:30, C/P 0.6:1, autoxidation 37° C. 72 hours, vs untreated controls
Experimental: Levels of lipid hydroperoxides were also measured in cholesterol-enriched membrane prepared in the absence of EPA as a control. […] CHOD-iodide color reagent (stock) was prepared according to a procedure modified from El-Saadani et […], Goher […], Jurgens G. A spectrophotometric assay for lipid peroxides in serum lipoproteins using commercially available reagent. J. Lipid. […] Membrane samples consisting of DLPC±cholesterol were prepared as follows. Component lipids (in chloroform) were transferred to 13×100 mm test tubes and shell-dried under a steady stream of nitrogen gas while vortex mixing. The lipid was co-dried with EPA. Residual solvent was removed by drying for a minimum of 3 h under vacuum. After desiccation, each membrane sample was resuspended in diffraction buffer (0.5 mM HEPES, 154 mM NaCl, pH 7.3) to yield a final phospholipid concentration of 1.0 mg/mL. Multilamellar vesicles (MLV) were formed by vortex mixing for 3 minutes at ambient temperature. […] Absorbances were measured against a CHOD blank at 365 nm using a Beckman DU-640 spectrophotometer. The CHOD colorimetric assay is based on the oxidation of iodide (I^-) by lipid hydroperoxides (LOOH) and proceeds according to the following reaction scheme: […]3^- The quantity of triiodide anion (I3^-) liberated in this reaction is directly proportional to the amount of lipid hydroperoxides present in the membrane sample.

HUVECs = assay: NO and ONOO^− release from HUVECs exposed to oxLDL, nanosensors (Example 8); assay type: cell-based, human; conditions: oxLDL 20 min, then agent 1 hour (EPA 10 μM, ATM 1.0 μM)
Experimental: Human umbilical vein endothelial cells (HUVECs) were isolated into primary cultures from female donors by Clonetics (San Diego, Calif.) and purchased as proliferating cells. All cell culture donors were healthy, with no pregnancy or prenatal complications. […] The confluent cells (4 to 5×10^5 cells/35 mm dish) were placed with minimum essential medium containing 3 mM L-arginine and 0.1 mM BH4 [(6R)-5,6,7,8-tetrahydrobiopterin]. Before experimental use, the cells (from second or third passage) were rinsed twice with Tyrode-HEPES buffer with 1.8 mM CaCl2.
The omega-3 fatty acids (O3FAs) cis-5,8,11,14,17-eicosapentaenoic acid (EPA) and docosahexaenoic acid (DHA) were purchased from Sigma-Aldrich (St. Louis, Mo.) and prepared initially at 11 mM in redistilled ethanol. Primary and secondary O3FA stock solutions were prepared and stored under argon at −20° C. […]
Oxidation was monitored by the use of measurements of TBARS. […] TBARS concentration was determined as malondialdehyde (MDA) equivalents with the use of an MDA standard curve. […]
The amperometric method (with a response time of 0.1 ms) provides a quantitative signal (current) that is directly proportional to changes (from basal levels) in NO or ONOO^− concentration. […] Basal NO or ONOO^− levels were measured by differential pulse voltammetry in separate experiments. […]

SMILES | reduction of LOOH levels [1] | NO/ONOO^− Ratio (HUVECs) | NO release (HUVECs; unit printed in b302 only)
CC/C=C\C/C=C\C/C=C\C/C=C\C/C=C\CCCC(=O)O [EPA, cis-5,8,11,14,17-eicosapentaenoic acid] | greater than 90% | – | –
O=C(O)c1cccnc1 [Niacin, nicotinic acid] | – | 2.00 ± 0.52 | 431 ± 100 nM
